In experiment [1] the test system is NOD mouse. The note with it: cited from earlier work; for Protection in the NOD mouse: protective therapeutic interventions suggested to depend on NK cell activities; for Protection from diabetes: pre-diabetic NOD mice.
For experiment [2], the system named is BB rats. As to conditions: cited from earlier work.
The test system of experiment [3] is average virtual NOD mouse. Kind of experiment: Simulation of therapy protocols in the average virtual NOD mouse (computer model of type 1 diabetes). The note with it: expectation from published data. The source says:
One application of a NOD mouse type 1 diabetes model is to improve understanding of type 1 diabetes pathogenesis in the NOD mouse. Model development therefore focused on islet β cell autoimmunity and tolerance, as well as related mechanisms and interventions. To provide for general immunologic function and not only progression to diabetes, the development effort included representation of several NOD mouse phenotypes. The first phenotype was an average diabetic virtual mouse. […] Typically, a simulation of the average virtual mouse concludes shortly after diabetes diagnosis, which is consistent with post-diabetic sacrifice of NOD mice in the laboratory. […] Additional virtual mice, each with different clinical behaviors and/or underlying pathophysiologies, have also been generated. Similarly, development of modals of type 1 diabetes in other mammals, such as humans, can include the development of various virtual patients representing normal animals or animals having varying degrees of severity or progression of type 1 diabetes.
Because diabetes is typically assessed by measuring blood or urinary glucose, blood glucose levels were represented in the model's clinical read-out. Hyperglycemia (a diabetes indicator) was defined as a glucose level in excess of a commonly used standard (e.g., 200, 250, 300, 350 mg/dl). Glucose control was regulated based on a mathematical relationship describing interactions between blood insulin and glucose concentrations.
These include (i) dynamics of diabetes onset, (ii) dynamics of pancreatic lymph node (PLN) lymphocyte activation and expansion, and (iii) dynamics of islet infiltrate.
Numerous interventions have been tested in the NOD mouse. A major purpose of implementing selected interventions is to provide constraints for the virtual mouse, where constraints are defined as additional behavioral criteria that the virtual mouse should reproduce in a manner substantially consistent with published data. […]

In experiment [4] the test system is recent onset diabetic patients. The note with it: cited from earlier work; for Therapeutic response: insulin tolerization.

Read-outs that look alike come from different tables or passages of the source.

With `CN(C(=O)c1c(O)c2ccccc2n(C)c1=O)c1ccccc1` [linomide], the “Protection in the NOD mouse” value in experiment [1] is “protection”.
Regarding `NC(=O)c1cccnc1` [nicotinamide], the results for the Protection from diabetes entry in experiment [2] and in experiment [1] were “not” and “protection”, respectively.
Consider “Exendin-4: exendin-4; enhances glucose-dependent insulin secretion”, for which the “Expected virtual mouse outcome” value in experiment [3] (Exendin-4, Ogawa 2004 protocol) was “No remission”. Besides, the Incidence result in experiment [1] (Exendin-4, Ogawa 2004, 7-17 days after diagnosis of diabetes, 12 nmol/kg for 4 consec. days twice) is given as “No remission”.
For the compound “Exogenous TGF-β: exogenous TGF-β delivered as 200 μg of pCMV-TGF-β1”, the Incidence in experiment [1] (Exogenous TGF-β, Piccirillo 1998, 9-32 wks, 200 μg of pCMV-TGF-β1 every 2 wks, at 32 wks, vs 100% control) is given as 42% vs. 100% control at 32 wks. Besides, the Insulitis result in experiment [1] (Exogenous TGF-β, Piccirillo 1998) is listed as “Reduced severity of insulitis”. For the same compound, the Other observations entry in experiment [1] (Exogenous TGF-β, Piccirillo 1998, islet mRNA levels) is “Reduced mRNA levels of islet IL-12 & IFN-γ”.
Turning to IFN-α, in experiment [1], the “Protection in the NOD mouse” value is recorded as “protective”.
For the compound “Oral insulin: orally administered (porcine) insulin for induction of oral tolerance”, the figures for the Protection from diabetes result in experiment [2] and in experiment [1] were “not” and “protection”, respectively. The “Expected virtual mouse outcome” value is on record as “No diabetes at 45” in experiment [3] (Oral insulin, Homann 1999 (1 mg), at 45 weeks) and “No diabetes at 52 weeks” in experiment [3] (Oral insulin, Zhang 1991 (1 mg), at 52 weeks). For the same compound, the Incidence in experiment [1] (Oral insulin, Homann 1999 (1 mg), Rx 5-45 weeks, at 45 weeks, vs 63% control) is on record as 26% treated vs; in experiment [1] (Oral insulin, Zhang 1991 (0.1 mg), Rx 5-52 weeks, at 52 weeks, vs 49% control), 44% treated vs; in experiment [1] (Oral insulin, Zhang 1991 (1 mg), Rx 5-52 weeks, at 52 weeks, vs 49% control), 26% treated vs. For the same compound, the Protection against diabetes result in experiment [1] (oral administration of insulin, induction of oral tolerance) is reported as “protect against diabetes”.
Turning to “hOKT3γ1 (Ala-Ala): modified, dimeric non-FcR binding anti CD3 antibody used in human clinical trials”, the “Human clinical trial results” value in experiment [4] (recent onset diabetic patients, Herold 2002) is “promising”.
Consider “insulin: insulin tolerization therapy tested in human clinical trials”, for which the Therapeutic response entry in experiment [4] (general clinical trial population) was “responded poorly”; in experiment [4] (patients characterized by high insulin autoantibody titers), “better therapeutic responses”.
Regarding poly(I:C), in experiment [1], the “Protection in the NOD mouse” value is “protective”.

(Values after patent US20070071681A1, “Apparatus and method for computer modeling type 1 diabetes” (Entelos, Inc., priority 2005, published 2007).)
